Data on 29 compounds can be found in ChEMBL document CHEMBL1201862, “PubChem BioAssay data set” (2004).

What all share (assay): NCI tumour cell line growth inhibition, 48 h
The subject of test [1] is SNB-78.
For test [2], the system named is HOP-18.
In test [3] the test system is XF498.
Test [4] has as its system DLD-1.
Test [5] deals with DMS-273.
In test [6] the test system is RXF 631.
Test [7] concerns MDA-MB-435.
The test system of test [8] is Hs-578T.
The test system of test [9] is MDA-MB-231.

Each structure is given as a SMILES string.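 Assay format: 96-well plates, 48-hour exposure. At the GI50, growth is halved.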 Activity calls are given as the source filed them. Cut-off read from the data, not from the text of the source: active = GI50 up to about 1.1 µM and inactive = higher. A value given as a limit tells only on which side of the number the result lay.

On to `O=NN(CCF)C(=O)NC1CCSCC1`, for which the GI50 in test [1] is > 100 µM (inactive); in test [2] it was > 100 µM (inactive); in [3] it was < 0.01 µM (active); in [4], > 100 µM (inactive); in test [5], > 100 µM (inactive).

On to `CC1CC2=Nc3ccccc3NC(c3ccccc3)C2=C(O)O1` (stereo unspecified), for which the GI50 in test [1], in test [2], in test [4] and in test [5] was > 100 µM (inactive) in each case.

With `COc1nc(O)c(N)c(NC2OC(CO)C(O)C(O)C2O)n1` (stereo unspecified), the GI50 in test [1], in [2], in [3], in [4] and in test [5] was > 100 µM (inactive) in each case.

Regarding `CCC(C(C)N1CC(=O)NC(=O)C1)N1CC(=O)NC(=O)C1` (stereo unspecified), the GI50 in test [1] was > 66.4 µM (inactive); in [2], > 100 µM (inactive); in test [3], 14.5 µM (inactive); in test [4], > 31.3 µM (inactive); in test [5], 12.3 µM (inactive).

Regarding `CCCCSCC(NC(=O)/C=C/c1c(C)[nH]c(=O)[nH]c1=O)C(=O)OC` (stereo unspecified), the GI50 in test [1] is 47 µM (inactive); in test [2] it was 61.2 µM (inactive); in [4] it was 54.8 µM (inactive); in test [5], 88.3 µM (inactive).

`CCN(CC)CC(C)(C)C(=O)/C=C/c1ccc(C)cc1`: the GI50 in test [1] is 10.7 µM (inactive); in test [2], 11.4 µM (inactive); in test [3], 7.96 µM (inactive); in [6], 9.42 µM (inactive); in test [4] it was 11.5 µM (inactive).

On to `Cc1ccccc1NC(=O)CC(=O)N1N=C(N2c3ccccc3Sc3ccccc32)CC1c1ccccc1` (stereo unspecified), for which the GI50 in test [1], in test [3], in test [6], in [4] and in test [5] was > 100 µM (inactive) throughout.

Regarding `CSc1nc(NC(=O)O)c(N(C(C)=O)C(=O)O)c(=O)n1C`, the GI50 in test [1], in test [3], in test [6], in test [4] and in test [5] was > 100 µM (inactive) each time.

For `CN(CCO)c1nc(=O)c2c([nH]1)CCC2`, the GI50 in [1], in test [2], in test [3], in test [4] and in test [5] was > 100 µM (inactive) throughout.

For `Cc1cc(C(C)(C)C)cc(Cc2cc(C(C)(C)C)cc(Cc3cc(C(C)(C)C)cc(C)c3O)c2O)c1O`, the GI50 in test [1] is 4.98 µM (inactive); in test [2], 15.4 µM (inactive); in test [3] it was 1.65 µM (inactive); in test [4], 6.05 µM (inactive); in [5] it was 10.9 µM (inactive).

Turning to `Cc1cc(Cl)ccc1/N=C1/NC(=O)C(CC(=O)Nc2cccc(C)c2C)S1` (stereo unspecified), the GI50 in test [1] was 28.5 µM (inactive); in [3] it was 10.7 µM (inactive); in test [6] it was 26.4 µM (inactive); in test [4], 33.4 µM (inactive); in test [5], 26.1 µM (inactive).

`CCCCN(CCCC)C(=O)C(=O)C(C#N)c1ccc(C)cc1` (stereo unspecified): the GI50 in [1], in [2], in [3], in [4] and in test [5] was > 100 µM (inactive) throughout.

`CC1(C)c2ccccc2C(C)(C)C(C(=O)Nc2ccccc2)C1C(=O)O` (stereo unspecified): the GI50 in test [1], in test [2], in [4] and in test [5] was > 100 µM (inactive) each time.

As to `CCC1=CCN(c2cc(C)ccn2)OC1c1ccc(OC)cc1` (stereo unspecified), the results for the GI50 in [6] and in test [4] were 61.2 µM (inactive) and 30.2 µM (inactive), respectively.

On to `CC1C=CC(=O)C(n2cc(F)c(=O)[nH]c2=O)O1` (stereo unspecified), for which the GI50 in [1] is 28.2 µM (inactive); in test [2], 10.8 µM (inactive); in test [3], 15.1 µM (inactive); in test [6] it was 19.7 µM (inactive); in test [4], 18.6 µM (inactive); in test [5] it was 21.4 µM (inactive).

`C=CCNC1=NC(=O)C(CC(=O)Nc2cccc(Cl)c2)S1` (stereo unspecified): the GI50 in test [2], in test [3], in [6], in test [4] and in test [5] was > 100 µM (inactive) throughout.

In the case of `CC1(C)CC23C4COC(=O)C2CCC1C3CC4=O` (stereo unspecified), the GI50 was 15 µM (inactive) in test [1]; 1.72 µM (inactive) in [2]; 13.7 µM (inactive) in test [3]; 11.2 µM (inactive) in test [4]; 19.9 µM (inactive) in test [5].

For `Cc1ccccc1NC(=O)C(=O)C1CN(c2ccccc2)N=C1N` (stereo unspecified), the GI50 in test [1], in test [3], in test [6] and in test [4] was > 100 µM (inactive) each time.

Consider `COc1cc(/C=C/C(=O)Oc2ccc(NC(C)=O)cc2)ccc1C(=O)OCc1ccccc1`, for which the GI50 in test [1] is 32.6 µM (inactive); in [2], > 100 µM (inactive); in test [7] it was > 100 µM (inactive); in [8] it was > 100 µM (inactive); in test [3], 25.6 µM (inactive); in test [9], > 100 µM (inactive). For the same compound, the GI50 in [4] was > 100 µM (inactive); in test [5], 78 µM (inactive).

For `CC1Cc2c(N)nc(N3CCOCC3)nc2NC1=O` (stereo unspecified), the GI50 is > 100 µM (inactive) in [2], 0.463 µM (active) in test [3], > 100 µM (inactive) in [4] and > 100 µM (inactive) in [5].

For the compound `CCCCCCC/C=C1\CCC(CN(C)C)C1=O` (stereo unspecified), the GI50 was 16.4 µM (inactive) in [1]; 17.2 µM (inactive) in test [2]; 5.66 µM (inactive) in test [7]; 3.88 µM (inactive) in test [8]; 20.5 µM (inactive) in test [3]; 10.9 µM (inactive) in test [6]. The GI50 in test [9] was 3.2 µM (inactive); in test [4], 7.1 µM (inactive).

`C=C/C=C/NC(=O)OCc1ccccc1`: the GI50 in [1], in test [2], in test [3], in [4] and in [5] was > 100 µM (inactive) each time.

On to `Cc1ccc2c(c1)C1(OC(=O)c3ccccc31)c1ccc(F)cc1O2` (stereo unspecified), for which the GI50 is > 100 µM (inactive) in test [2], 82.8 µM (inactive) in test [3], 83.9 µM (inactive) in [6] and 61.8 µM (inactive) in test [4].

Take `NC(=O)OCC1=C(COC(N)=O)C(=O)c2c(O)ccc(O)c2C1=O`: the GI50 in test [1], in [2], in test [4] and in test [5] was > 100 µM (inactive) in each case.

With `CC(C(=O)C(C)O[Si](c1ccccc1)(c1ccccc1)C(C)(C)C)=P(c1ccccc1)(c1ccccc1)c1ccccc1` (stereo unspecified), the GI50 in test [1] was 3.48 µM (inactive); in test [2] it was 3.05 µM (inactive); in [3], 2.79 µM (inactive); in [4], 4.58 µM (inactive).

Turning to `Cn1cnc([N+](=O)[O-])c1Sc1nc2cc([N+](=O)[O-])ccc2[nH]1`, the GI50 was 24.1 µM (inactive) in [1]; 45.8 µM (inactive) in test [2]; 10.8 µM (inactive) in test [3]; 11.5 µM (inactive) in [4]; 1.73 µM (inactive) in [5].

Take `CC1CCCCc2nc3c(c(=O)n21)CCCC3` (stereo unspecified): the GI50 in test [1] is > 100 µM (inactive); in test [3], > 100 µM (inactive); in [6], 29.4 µM (inactive); in test [4], > 100 µM (inactive); in test [5], > 100 µM (inactive).

For the compound `CCCCc1ccc(-n2c3nc(=O)n(C)c(=O)c-3nc3ccccc32)cc1`, the GI50 in test [1] is 16.3 µM (inactive); in test [2] it was 10.8 µM (inactive); in [3], 18.2 µM (inactive); in test [6], 11.9 µM (inactive); in test [5], 10.3 µM (inactive).

As for `Cc1ccc(S(=O)(=O)NC(=O)Nc2nc(Cl)cc(Cl)n2)cc1`, the GI50 in [1], in [2], in test [3], in [6] and in [4] was > 100 µM (inactive) throughout.
